The results in this text go back to US8097637B2, “Benzoyl-piperidine derivatives as dual modulators of the 5-HT2A and D3 receptors” (Hoffmann-La Roche Inc., priority 2007, dated 2012).

Assay [1] deals with T1, human D2 dopamine receptor (Homo sapiens, UniProt P14416).
T1 construct: expressed in transfected cells; host or cells: HEK-293 EBNA cells, transient transfection; membrane preparation
The assay can be described thus: Radioligand binding ([3H]-spiperone) to cloned human D2 receptor, HEK-293 EBNA cell membranes. Conditions: 0.7 nM [3H]-spiperone, 1 h at RT, Cheng-Prusoff. On the procedure:
(§1) Membrane Preparation for Human D2, Human D3 and Human 5-HT2A Receptors
(§2) HEK-293 EBNA cells were transiently transfected with expression plasmids encoding for the human D2 or D3 dopamine- or for the human 5-HT2A serotonin receptor, respectively. The cells were harvested 48 h post-transfection, washed three times with cold PBS and stored at −80° C. prior to use. The pellet was suspended in cold 50 mM Tris-HCl buffer containing 10 mM EDTA (pH 7.4) and homogenized with a Polytron (Kinematica AG, Basel, Switzerland) for 20-30 sec at 12.000 rpm. After centrifugation at 48.000×g for 30 min at 4° C., the pellet was resuspended in cold 10 mM Tris-HCl buffer containing 0.1 mM EDTA (pH 7.4), homogenized, and centrifuged as above. This pellet was further resuspended in a smaller volume of ice cold 10 mM Tris-HCl buffer containing 0.1 mM EDTA (pH 7.4) and homogenized with a Polytron for 20-30 sec at 12.000 rpm. The protein content of this homogenate was determined with the Bio-Rad (Bradford) Protein Assay (Biorad Laboratories GmbH, München, Germany) according to the instructions of the manufacturer using gamma globulin as the standard. This homogenate was stored at −80° C. in aliquots and thawed immediately prior to use.
(§3) Radioligand Binding Assay Conditions
(§4) Aliquots of membrane preparations were thawed at RT, resuspended in assay buffer (D2, D3: 50 mM Tris-HCl, 120 mM NaCl, 5 mM MgCl2, 1 mM EDTA, 5 mM KCl, 1.5 mM CaCl2, pH=7.4; 5-HT2A: 50 mM Tris-HCl, 10 mM MgCl2, 1 mM EGTA, pH=7.4), homogenized with a Polytron for 20-30 sec at 12.000 rpm and adjusted to a final concentration of approximately 7.5 μg protein/well (D2, D3) and 15 μg protein/well (5-HT2A), respectively.
(§5) The binding affinity (Ki) of the compounds was determined using radioligand binding. Membranes were incubated in a total volume of 200 μl with a fixed concentration of radioligand (final concentration approximately 0.7 nM [^3H]-spiperone for D2, 0.5 nM [^3H]-spiperone for D3, and 1.1 nM [^3H]-ketanserin for 5-HT2A) and ten concentrations of test compound in ranging between 10 μM-0.1 nM for 1 h at RT. At the end of the incubation, the reaction mixtures were filtered on to unifilter 96-well white microplates with bonded GF/C filters (Packard BioScience, Zürich, Switzerland; preincubated for 1 h in 0.1% polyethylenimine (PEI) in assay buffer) with a Filtermate 196 harvester (Packard BioScience) and washed 3 times with cold assay buffer. The nonspecific binding was determined with equally composed reaction mixtures in the presence of 10 μM unlabeled spiperone. Per well 45 μl of Microscint 40 (Perkin Elmer, Schwerzenbach, Switzerland) was added, plates for sealed, shaken for 20 min and counted for 3 min on a Topcount Microplate Scintillation Counter (Canberra Packard SA, Zürich, Switzerland) with quenching correction.
(§6) The CPM value for each duplicate of a concentration of competing compound was averaged (yl), then the % specific binding was calculated according to the equation (((yl-non-specific)/(total binding-non-specific))×100). Graphs were plotted with the % specific binding using XLfit, a curve fitting program that iteratively plots the data using Levenburg Marquardt algorithm. The single site competition analysis equation used was y=A+((B−A)/(1+((x/C)^D))), where y is the % specific binding, A is the minimum y, B is the maximum y, C is the IC50, x is the log10 of the concentration of the competing compound and D is the slope of the curve (the Hill Coefficient). […] The affinity constant (Ki) was calculated using the Cheng-Prusoff equation Ki=(IC50/1+([L]/Kd), where [L] is the concentration of radioligand and Kd is the dissociation constant of the radioligand at the receptor as determined by the saturation isotherm.

Assay [2] concerns the target T2, human D3 dopamine receptor (Homo sapiens, UniProt P35462).
T2 construct: expressed in transfected cells; host or cells: HEK-293 EBNA cells, transient transfection; membrane preparation
The assay can be described thus: Radioligand binding ([3H]-spiperone) to cloned human D3 receptor, HEK-293 EBNA cell membranes. The settings on record: 0.5 nM [3H]-spiperone, 1 h at RT, Cheng-Prusoff. The protocol: The ability of the compounds to bind to the 5-HT2A, D3 and D2 receptors was determined using radioligand binding to cloned receptors selectively expressed in HEK-293 EBNA cells.
as §1, §2, §3, §4, §5, §6

Assay [3] concerns the target T3, human 5-HT2A serotonin receptor (Homo sapiens, UniProt P28223).
T3 construct: expressed in transfected cells; host or cells: HEK-293 EBNA cells, transient transfection; membrane preparation
The experiment in a line: Radioligand binding ([3H]-ketanserin) to cloned human 5-HT2A receptor, HEK-293 EBNA cell membranes. The settings on record: 1.1 nM [3H]-ketanserin, 1 h at RT, Cheng-Prusoff. On the procedure:
as §1
as §2, with “The” for “HEK-293 EBNA cells were transiently transfected with expression plasmids encoding for the human D2 or D3 dopamine- or for the human 5-HT2A serotonin receptor, respectively. The”
as §3, §4
The binding affinity (Ki) of the compounds was determined using radioligand binding. […] The nonspecific binding was determined with equally composed reaction mixtures in the presence of 10 μM unlabeled spiperone. Per well 45 μl of Microscint 40 (Perkin Elmer, Schwerzenbach, Switzerland) was added, plates for sealed, shaken for 20 min and counted for 3 min on a Topcount Microplate Scintillation Counter (Canberra Packard SA, Zürich, Switzerland) with quenching correction.
as §6

Each structure is given as a SMILES string.

T2 sequence (P35462 whole entry): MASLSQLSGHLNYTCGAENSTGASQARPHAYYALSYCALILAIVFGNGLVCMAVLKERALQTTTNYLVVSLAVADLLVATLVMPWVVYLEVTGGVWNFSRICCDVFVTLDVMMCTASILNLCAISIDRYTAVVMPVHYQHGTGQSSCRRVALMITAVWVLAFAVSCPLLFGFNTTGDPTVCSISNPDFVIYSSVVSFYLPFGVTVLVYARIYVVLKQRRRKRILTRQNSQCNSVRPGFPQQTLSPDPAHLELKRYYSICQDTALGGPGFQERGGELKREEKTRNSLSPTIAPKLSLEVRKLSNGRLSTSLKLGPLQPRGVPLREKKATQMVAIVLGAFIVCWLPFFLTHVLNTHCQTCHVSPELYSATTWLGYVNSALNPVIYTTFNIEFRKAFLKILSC
T1 sequence (P14416 whole entry): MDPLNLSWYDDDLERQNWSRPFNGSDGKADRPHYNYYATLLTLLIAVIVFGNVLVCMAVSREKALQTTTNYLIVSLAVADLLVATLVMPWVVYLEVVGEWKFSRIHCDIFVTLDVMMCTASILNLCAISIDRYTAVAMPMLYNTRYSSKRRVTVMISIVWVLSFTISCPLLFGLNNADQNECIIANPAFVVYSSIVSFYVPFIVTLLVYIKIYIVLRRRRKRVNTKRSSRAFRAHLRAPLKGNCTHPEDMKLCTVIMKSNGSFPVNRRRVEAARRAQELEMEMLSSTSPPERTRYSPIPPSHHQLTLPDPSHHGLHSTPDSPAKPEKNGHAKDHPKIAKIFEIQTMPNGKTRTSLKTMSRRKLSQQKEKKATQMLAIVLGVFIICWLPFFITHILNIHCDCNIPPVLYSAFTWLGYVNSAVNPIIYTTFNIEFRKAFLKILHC
T3 sequence (P28223 whole entry): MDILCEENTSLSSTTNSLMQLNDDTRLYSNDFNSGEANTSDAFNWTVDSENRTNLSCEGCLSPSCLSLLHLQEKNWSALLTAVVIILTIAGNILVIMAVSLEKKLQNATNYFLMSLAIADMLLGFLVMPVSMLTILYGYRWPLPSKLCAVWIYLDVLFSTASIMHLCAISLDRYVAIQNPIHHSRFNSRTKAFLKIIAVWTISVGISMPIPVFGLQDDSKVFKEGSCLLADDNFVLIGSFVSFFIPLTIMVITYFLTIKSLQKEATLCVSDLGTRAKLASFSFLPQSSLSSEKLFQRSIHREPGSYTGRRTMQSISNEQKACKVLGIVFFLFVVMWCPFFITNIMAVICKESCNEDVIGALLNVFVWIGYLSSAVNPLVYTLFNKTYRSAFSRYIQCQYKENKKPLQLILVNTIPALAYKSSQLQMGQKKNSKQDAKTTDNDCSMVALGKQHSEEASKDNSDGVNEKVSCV

On to `O=C(C[C@H]1CC[C@H](O)C1)N[C@H]1CC[C@H](CCN2CCC(C(=O)c3ccc(F)cc3)CC2)CC1` (racemic) [Example 7, rac-N-trans (4-{2-[4-(4-Fluoro-benzoyl)-piperidin-1-yl]-ethyl}-cyclohexyl)-2-trans (3-hydroxy-cyclopentyl)-acetamide], for which the Ki – broadly, a measure of affinity in units of concentration, obtained from inhibition or displacement – turned out to be 807 nM in assay [1], 19 nM in assay [2] and 16 nM in assay [3].

As to `O=C(CC1CCC(OC2CCOC2)CC1)N[C@H]1CC[C@H](CCN2CCC(C(=O)c3ccc(F)cc3)CC2)CC1` (mixture of isomers) [Example 17, rac-N-Trans (4-{2-[4-(4-Fluoro-benzoyl)-piperidin-1-yl]-ethyl}-cyclohexyl)-2-[4-(tetrahydro-furan-3-yloxy)-cyclohexyl]-acetamide], the inhibition constant (Ki) in assay [1] is 2610 nM; in assay [2], 40 nM; in assay [3], 11 nM.

Take `CCO[C@H]1CC[C@H](CC(=O)N[C@H]2CC[C@H](CCN3CCC(C(=O)c4ccc(F)cc4)CC3)CC2)C1` (racemic) [Example 18, rac-2-(trans-3-Ethoxy-cyclopentyl)-N-trans-(4-{2-[4-(4-fluoro-benzoyl)-piperidin-1-yl]-ethyl}-cyclohexyl)-acetamide]: the inhibition constant Ki was 1940 nM in assay [1], 42 nM in assay [2] and 28 nM in assay [3].

As for `COCC1CCC(CC(=O)N[C@H]2CC[C@H](CCN3CCC(C(=O)c4ccc(F)cc4)CC3)CC2)C1` (mixture of isomers) [Example 28, rac-N-trans (4-{2-[4-(4-Fluoro-benzoyl)-piperidin-1-yl]-ethyl}-cyclohexyl)-2-(3-methoxymethyl-cyclopentyl)-acetamide], the figures for the Ki in assay [1], in assay [2] and in assay [3] were 1300 nM, 33 nM and 7 nM, respectively.

Turning to `COC1CCC(CCC(=O)N[C@H]2CC[C@H](CCN3CCC(C(=O)c4ccc(F)cc4)CC3)CC2)CC1` (mixture of isomers) [Example 29, rac-N-trans (4-{2-[4-(4-Fluoro-benzoyl)-piperidin-1-yl]-ethyl}-cyclohexyl)-3-(4-methoxy-cyclohexyl)-propionamide], the Ki was determined as 1410 nM in assay [1], 41 nM in assay [2] and 7 nM in assay [3].

With `CO[C@@H]1CCC[C@@H](CC(=O)N[C@H]2CC[C@H](CCN3CCC(C(=O)c4ccc(F)cc4)CC3)CC2)C1` (single isomer, unassigned) [Example 16, N-trans (4-{2-[4-(4-Fluoro-benzoyl)-piperidin-1-yl]-ethyl}-cyclohexyl)-2-((1R,3R)-3-methoxy-cyclohexyl)-acetamide or N-trans (4-{2-[4-(4-fluoro-benzoyl)-piperidin-1-yl]-ethyl}-cyclohexyl)-2-((1S,3S)-3-methoxy-cyclohexyl)-acetamide], the Ki in assay [1] stood at 1250 nM; in assay [2], 35 nM; in assay [3], 7 nM.

On to `C[C@]1(O)CC[C@H](CC(=O)N[C@H]2CC[C@H](CCN3CCC(C(=O)c4ccc(F)cc4)CC3)CC2)CC1` (single isomer, unassigned) [Example 23, N-trans (4-{2-[4-(4-Fluoro-benzoyl)-piperidin-1-yl]-ethyl}-cyclohexyl)-2-(4-trans-hydroxy-4-methyl-cyclohexyl)-acetamide or N-trans (4-{2-[4-(4-fluoro-benzoyl)-piperidin-1-yl]-ethyl}-cyclohexyl)-2-(4-cis-hydroxy-4-methyl-cyclohexyl)-acetamide], for which the Ki in assay [1] was 1300 nM; in assay [2], 49 nM; in assay [3], 7 nM.

As for `C[C@]1(O)CC[C@@H](CC(=O)N[C@H]2CC[C@H](CCN3CCC(C(=O)c4ccc(F)cc4)CC3)CC2)CC1` (single isomer, unassigned) [Example 24, N-trans (4-{2-[4-(4-Fluoro-benzoyl)-piperidin-1-yl]-ethyl}-cyclohexyl)-2-(4-cis-hydroxy-4-methyl-cyclohexyl)-acetamide or N-trans (4-{2-[4-(4-fluoro-benzoyl)-piperidin-1-yl]-ethyl}-cyclohexyl)-2-(4-trans-hydroxy-4-methyl-cyclohexyl)-acetamide], the figures for the Ki in assay [1], in assay [2] and in assay [3] were 1200 nM, 43 nM and 9 nM, respectively.

With `CO[C@H]1CC[C@@H](CC(=O)N[C@H]2CC[C@H](CCN3CCC(C(=O)c4ccc(F)cc4)CC3)CC2)CC1` [Example 2, N-trans (4-{2-[4-(4-Fluoro-benzoyl)-piperidin-1-yl]-ethyl}-cyclohexyl)-2-cis (4-methoxy-cyclohexyl)-acetamide], the Ki worked out at 1510 nM in assay [1], 28 nM in assay [2] and 6 nM in assay [3].

For the compound `CO[C@H]1CC[C@H](CC(=O)N[C@H]2CC[C@H](CCN3CCC(C(=O)c4ccc(F)cc4)CC3)CC2)CC1` [Example 3, N-trans (4-{2-[4-(4-Fluoro-benzoyl)-piperidin-1-yl]-ethyl}-cyclohexyl)-2-trans (4-methoxy-cyclohexyl)-acetamide], the Ki in assay [1] amounted to 1280 nM; in assay [2], 24 nM; in assay [3], 6 nM.

As for `O=C(CC1CCC2(CC1)OCCO2)N[C@H]1CC[C@H](CCN2CCC(C(=O)c3ccc(F)cc3)CC2)CC1` [Example 12, 2-(1,4-Dioxa-spiro[4.5]dec-8-yl)-N-trans (4-{2-[4-(4-fluoro-benzoyl)-piperidin-1-yl]-ethyl}-cyclohexyl)-acetamide], the Ki in assay [1] stood at 1740 nM; in assay [2] it was 24 nM; in assay [3], 6 nM.

For the compound `CCO[C@H]1CC[C@H](CC(=O)N[C@H]2CC[C@H](CCN3CCC(C(=O)c4ccc(F)cc4)CC3)CC2)CC1` [Example 13, Trans-2-(4-Ethoxy-cyclohexyl)-N-trans (4-{2-[4-(4-fluoro-benzoyl)-piperidin-1-yl]-ethyl}-cyclohexyl)-acetamide], the Ki in assay [1] is 1400 nM; in assay [2], 33 nM; in assay [3], 13 nM.

With `COC[C@H]1CC[C@H](CC(=O)N[C@H]2CC[C@H](CCN3CCC(C(=O)c4ccc(F)cc4)CC3)CC2)CC1` [Example 21, N-trans (4-{2-[4-(4-Fluoro-benzoyl)-piperidin-1-yl]-ethyl}-cyclohexyl)-2-trans (4-methoxymethyl-cyclohexyl)-acetamide], the Ki in assay [1] was 1010 nM; in assay [2], 25 nM; in assay [3] it was 5 nM.
